Assays:
Assay type in all cases: in vivo, C57BL/6 mice
[1] = Body weight changes in BLM-induced pulmonary fibrosis model mice; details: for Body weight changes (%) on the day of sacrifice: percentage of baseline (day 0), mean ± SD
Experimental: Seven-week-old female C57BL/6 mice (17-21 g) were obtained from Japan SLC (Japan). Animals were housed and fed with normal diet (CE-2; CLEA Japan) under conventional conditions. All animals used in this study were cared following appropriate guidelines.
(§1) On day 0, twenty mice were intratracheally administered BLM (Nippon Kayaku, Japan) in 0.9% saline in a volume of 50 μL per animal using a Microsprayer® (Penn-Century, USA).
(§2) MN-001 and vehicle were administered by oral route in a volume of 10 mL/kg.
(§3) MN-001 was administered at doses of 30, 100, 300 mg/kg once daily.
(§4) The viability, clinical signs and behavior were monitored every day. Body weight was recorded daily after the day of starting the BLM administration (day 0). Animals were sacrificed by exsanguination through the abdominal aorta under pentobarbital sodium anesthesia (Kyoritsu, Japan).
Body weight was expressed as percentage body weight change from baseline (day 0).

[2] = test system: BLM-induced pulmonary fibrosis model mice; assay: Survival analysis in BLM-induced pulmonary fibrosis model mice
Experimental: as §1, §2, §3, §4

[3] = test system: BLM-induced pulmonary fibrosis model mice; assay: CT evaluation of lung density in BLM-induced pulmonary fibrosis model mice; details: for Lung density on day 0 / Lung density on day 7: CT, mean ± SD; for Lung density on day 0: day 0 (before BLM administration and before treatment); for Lung density on day 7: day 7 after BLM (start of treatment)
Experimental: On day 0, twenty mice were intratracheally administered BLM (Nippon Kayaku, Japan) in 0.9% saline in a volume of 50 μL per animal using a Microsprayer® (Penn-Century, USA). MN-001 and vehicle were administered by oral route in a volume of 10 mL/kg. MN-001 was administered at doses of 30, 100, 300 mg/kg once daily. […] The mice were mounted on a holder and placed in the X-ray CT system (LCT-200, Aloka, Japan) under pentobarbital sodium (Kyoritu Seiyaku, Japan) anesthesia. The images were converted into DICOM format and analyzed with Onis Viewer (DigitalCore, Japan). Two section slides (upper: forth dorsal vertebra, lower: seventh dorsal vertebra) were determined from each scan data set, and eight regions of interest (ROI) were defined in the following areas: the right upper anterior and posterior regions, the left upper anterior and posterior region. The means of the intensity of the eight ROIs were defined as an individual's level of lung density.

[4] = test system: BLM-induced pulmonary fibrosis model mice; assay: Cellular analysis of BALF (total cell number) in BLM-induced pulmonary fibrosis model mice; details: for Total number of cells in BALF: sacrifice day 21, mean ± SD
Experimental: On day 0, twenty mice were intratracheally administered BLM (Nippon Kayaku, Japan) in 0.9% saline in a volume of 50 μL per animal using a Microsprayer® (Penn-Century, USA). MN-001 and vehicle were administered by oral route in a volume of 10 mL/kg. MN-001 was administered at doses of 30, 100, 300 mg/kg once daily. BALF samples were collected by flushing the lung via the trachea with sterile PBS three times (0.8 mL each). The first lavage was kept separate from the other two. BALF was centrifuged at 1,000×g for 3 minutes at 4° C. and the supernatant was collected and stored at −80° C. until use. The cell pellet from the first fraction and the remaining fractions of lavage fluid were pooled. Total cell number of BALF was counted with a hemocytometer.

[5] = test system: BLM-induced pulmonary fibrosis model mice; assay: Lung hydroxyproline content in BLM-induced pulmonary fibrosis model mice; details: for Lung hydroxyproline contents / Lung Hyp (lung hydroxyproline content): sacrifice day 21, mean ± SD
Experimental: On day 0, twenty mice were intratracheally administered BLM (Nippon Kayaku, Japan) in 0.9% saline in a volume of 50 μL per animal using a Microsprayer® (Penn-Century, USA). MN-001 and vehicle were administered by oral route in a volume of 10 mL/kg. MN-001 was administered at doses of 30, 100, 300 mg/kg once daily. To quantify lung hydroxyproline content, frozen left lung samples (15-25 mg) were processed by an alkaline-acid hydrolysis method as follows. Lung samples were acid-hydrolyzed with 400 μL of 6N HCl at 121° C. for 20 minutes, and neutralized with 400 μL of 4N NaOH containing 10 mg/mL activated carbon. AC buffer (2.2M acetic acid/0.48M citric acid, 400 μL) was added to the samples, followed by centrifugation to collect the supernatant. A standard curve of hydroxyproline was constructed with serial dilutions of trans-4-hydroxy-L-proline (Sigma-Aldrich, USA) starting at 16 μg/mL. The prepared samples and standards (each 400 μL) were mixed with 400 μL chloramine T solution (Wako Pure Chemical Industries Japan) and incubated for 25 minutes at room temperature. The samples were then mixed with Ehrlich's solution (400 μL) and heated at 65° C. for 20 minutes to develop the color. After samples were cooled on ice and centrifuged to remove precipitates, the optical density of each supernatant was measured at 560 nm. The concentrations of hydroxyproline were calculated from the hydroxyproline standard curve. Lung hydroxyproline levels were expressed as […].

[6] = test system: BLM-induced pulmonary fibrosis model mice; assay: Histopathological analysis (Masson's trichrome staining, Ashcroft score) in BLM-induced pulmonary fibrosis model mice; details: for Ashcroft score: sacrifice day 21, mean ± SD
Experimental: On day 0, twenty mice were intratracheally administered BLM (Nippon Kayaku, Japan) in 0.9% saline in a volume of 50 μL per animal using a Microsprayer® (Penn-Century, USA). MN-001 and vehicle were administered by oral route in a volume of 10 mL/kg. MN-001 was administered at doses of 30, 100, 300 mg/kg once daily. Right lung tissues prefixed in 10% neutral buffered formalin were embedded in paraffin and sectioned at […] sections were stained with Masson's trichrome staining Kit (Sigma, USA) according to the manufacturer's instructions. The degree of pulmonary fibrosis was evaluated using the Ashcroft score (Ashcroft, T., et al., J Clin Pathol, 1988; 41:467-70) for the quantitative histological analysis.

[7] = test system: BLM-induced pulmonary fibrosis in mice; assay: Bleomycin (BLM)-induced pulmonary fibrosis in mice, therapeutic regimen, overall conclusion; details: administered after detecting fibrosis (therapeutic regimen, from day 7 after BLM)
Experimental: As evidenced by Ashcroft score and lung hydroxyproline content, pulmonary fibrosis was established in all BLM-treated mice. […] In the present study, MN-001 was administered at day 7 after BLM administration. Since BLM induced fibrogenic reaction already at day 7, the treatment schedule in the present study is considered to be a “therapeutic regimen”. […] On day 0, twenty mice were intratracheally administered BLM (Nippon Kayaku, Japan) in 0.9% saline in a volume of 50 μL per animal using a Microsprayer® (Penn-Century, USA). MN-001 and vehicle were administered by oral route in a volume of 10 mL/kg. MN-001 was administered at doses of 30, 100, 300 mg/kg once daily.

[8] = test system: BLM-induced pulmonary fibrosis model mice; assay: CT evaluation of lung density in BLM-induced pulmonary fibrosis model mice; details: for Lung density on day 21: CT, mean ± SD
[9] = MN-001 30 mg/kg oral once daily day 7 to 20, n = 8, 30 mg/kg
[10] = MN-001 100 mg/kg oral once daily day 7 to 20, n = 10, 100 mg/kg
[11] = MN-001 300 mg/kg oral once daily day 7 to 20, n = 10, 300 mg/kg
[12] = MN-001 30 mg/kg oral once daily day 7 to 20
[13] = MN-001 100 mg/kg oral once daily day 7 to 20
[14] = MN-001 300 mg/kg oral once daily day 7 to 20
[15] = MN-001 30 mg/kg oral once daily day 7 to 20, n = 8
[16] = MN-001 100 mg/kg oral once daily day 7 to 20, n = 10
[17] = MN-001 300 mg/kg oral once daily day 7 to 20, n = 10
[18] = MN-001 treatment, all doses, administered from day 7 after BLM

Compound: CCCc1c(SCCCOc2ccc(C(C)=O)c(OCCCC(=O)O)c2CCC)ccc(C(C)=O)c1O [MN-001]
- Body weight changes (%) on the day of sacrifice [1, 9]: 104.8±3.7%
- Body weight changes (%) on the day of sacrifice [1, 10]: 100.9±10.6%
- Body weight changes (%) on the day of sacrifice [1, 11]: 104.2±4.1%
- Mean body weight loss on the day of sacrifice compared to the Vehicle group ([1]; MN-001 treated groups (30, 100, 300 mg/kg), Bonferroni multiple comparison test): no significant differences
- Mice died before reaching day 21 ([2]; MN-001 30 mg/kg group, during the treatment period (Vehicle: two out of 10)): Two out of 10
- Survival rate compared to the Vehicle group ([2]; MN-001 treated groups (30, 100, 300 mg/kg)): no significant differences
- Lung density on day 0 ([3]; MN-001 30 mg/kg group, n = 8): −445 ± 17
- Lung density on day 7 ([3]; MN-001 30 mg/kg group, n = 8): −375 ± 77
- Lung density on day 0 ([3]; MN-001 100 mg/kg group, n = 10): −444 ± 18
- Lung density on day 7 ([3]; MN-001 100 mg/kg group, n = 10): −343 ± 84
- Lung density on day 0 ([3]; MN-001 300 mg/kg group, n = 10): −423 ± 19
- Lung density on day 7 ([3]; MN-001 300 mg/kg group, n = 10): −415 ± 83
- Lung density, visually observed in the graphs (FIGS. 1.1 to 1.3) ([3]; MN-001 treated groups vs Vehicle): downward trend
- Total number of cells in BALF [4, 12]: 65.1±26.1 ×10^5 cells
- Total number of cells in BALF [4, 13]: 124.4±127.3 ×10^4 cells
- Total number of cells in BALF [4, 14]: 76.0±35.0 ×10^5 cells
- Total number of cells in BALF compared to the Vehicle group ([4]; any MN-001 treated groups): no significant differences
- Lung hydroxyproline contents compared to the Vehicle group ([5]; MN-001 30 mg/kg group): significantly decreased
- Lung hydroxyproline contents [5, 12]: 49.8±7.9 μg/left lung
- Lung Hyp (lung hydroxyproline content) [5, 15]: 49.8 ± 7.9 µg/left lung
- Lung hydroxyproline contents compared to the Vehicle group ([5]; MN-001 100 mg/kg group): significantly decreased
- Lung hydroxyproline contents [5, 13]: 56.1±10.1 μg/left lung
- Lung Hyp (lung hydroxyproline content) [5, 16]: 56.1 ± 10.1 µg/left lung
- Lung hydroxyproline contents [5, 14]: 56.4±12.7 μg/left lung
- Lung Hyp (lung hydroxyproline content) [5, 17]: 56.4 ± 12.7 µg/left lung
- Lung hydroxyproline content compared to the Vehicle group ([5]; MN-001 300 mg/kg treatment): tended to decrease
- Lung hydroxyproline content compared to the Vehicle group at day 21 (summary) [5, 18]: significant reduction or a decreasing trend
- Ashcroft score [6, 9]: 2.0±0.7
- Ashcroft score compared to the Vehicle group ([6]; MN-001 30 mg/kg treatment): tended to decrease
- Ashcroft score [6, 10]: 2.2±0.8
- Ashcroft score compared to the Vehicle group ([6]; MN-001 100 mg/kg treatment): tended to decrease
- Ashcroft score compared to the Vehicle group ([6]; MN-001 300 mg/kg group): significantly decreased
- Ashcroft score [6, 11]: 1.8±0.6
- Ashcroft score compared to the Vehicle group at day 21 (summary) [6, 18]: significant reduction or a decreasing trend
- Anti-fibrogenic effect [7]: significant anti-fibrogenic effect
- Lung density on day 21 [8, 15]: −186 ± 84
- Lung density on day 21 [8, 16]: −200 ± 122
- Lung density on day 21 [8, 17]: −260 ± 107
- Lung density on day 0, 7 and 21 compared to the Vehicle group ([8]; any of the MN-001 treated groups, statistical comparison): no significant differences
